Test results from patent publication US7468364B2, “Carbapenem compounds” (Dainippon Sumitomo Pharma Co., Ltd., priority 2003, dated 2008).

Assay: Oral absorption test in rats
Assay type: in vivo
Conditions: male SD rats, oral 10 mg value/kg (as active substance)
Procedure: A compound of Example 1 of the present invention and a pivaloyloxymethyl ester derivative of the compound 32, carbapenem in which para-hydroxyphenyl group is directly substituted, which is described in the Journal of Medicinal Chemistry, Vol. 30, p 871-880, 1987 (which is one of the prior arts which are most relevant to the present invention) were orally administered to mice or rats. The concentration of the active substance in serum was measured by bioassay, and absolute bioavailability was compared respectively.
The test sample was prepared in the same manner as in the oral absorption test in mice. […] To thus treated rats were orally administered the test sample (10 mg value/kg (calculated into active substance)). […] The concentration of the active substance in the serum was measured by bioassay in the same manner as in the oral absorption in mice. […]
In regard to the test sample, the value of the concentration of the active substance in serum was plotted to the hours after administration, and calculated the concentration of the active substance-area under hours curve (AUC) or calculated reducing area under hours curve (AUC) from the concentration of the active substance. On the other hand, AUC when the active substance was intravenously administered was calculated as mentioned above. […]
The absolute availability (BA) was calculated based on the above formula.

With `C[C@@H](O)[C@H]1C(=O)N2C(C(=O)OCOC(=O)C(C)(C)C)=C(c3ccc(O)cc3)C[C@H]12` [comparative compound] the oral absorbability was “did not show oral absorbability”.
